Assay results published in ChEMBL document CHEMBL1201862, “PubChem BioAssay data set” (2004).
The source made the active and inactive calls.

Columns and labels:
[1] = target: T1, Eukaryotic translation initiation factor 2-alpha kinase 3 (Homo sapiens, UniProt Q9NZJ5); test: Dose response cell-based high-throughput screening assay to measure PERK inhibition. [Related pubchem assays: 1416 ]; format: functional
T1 sequence (Q9NZJ5 whole entry): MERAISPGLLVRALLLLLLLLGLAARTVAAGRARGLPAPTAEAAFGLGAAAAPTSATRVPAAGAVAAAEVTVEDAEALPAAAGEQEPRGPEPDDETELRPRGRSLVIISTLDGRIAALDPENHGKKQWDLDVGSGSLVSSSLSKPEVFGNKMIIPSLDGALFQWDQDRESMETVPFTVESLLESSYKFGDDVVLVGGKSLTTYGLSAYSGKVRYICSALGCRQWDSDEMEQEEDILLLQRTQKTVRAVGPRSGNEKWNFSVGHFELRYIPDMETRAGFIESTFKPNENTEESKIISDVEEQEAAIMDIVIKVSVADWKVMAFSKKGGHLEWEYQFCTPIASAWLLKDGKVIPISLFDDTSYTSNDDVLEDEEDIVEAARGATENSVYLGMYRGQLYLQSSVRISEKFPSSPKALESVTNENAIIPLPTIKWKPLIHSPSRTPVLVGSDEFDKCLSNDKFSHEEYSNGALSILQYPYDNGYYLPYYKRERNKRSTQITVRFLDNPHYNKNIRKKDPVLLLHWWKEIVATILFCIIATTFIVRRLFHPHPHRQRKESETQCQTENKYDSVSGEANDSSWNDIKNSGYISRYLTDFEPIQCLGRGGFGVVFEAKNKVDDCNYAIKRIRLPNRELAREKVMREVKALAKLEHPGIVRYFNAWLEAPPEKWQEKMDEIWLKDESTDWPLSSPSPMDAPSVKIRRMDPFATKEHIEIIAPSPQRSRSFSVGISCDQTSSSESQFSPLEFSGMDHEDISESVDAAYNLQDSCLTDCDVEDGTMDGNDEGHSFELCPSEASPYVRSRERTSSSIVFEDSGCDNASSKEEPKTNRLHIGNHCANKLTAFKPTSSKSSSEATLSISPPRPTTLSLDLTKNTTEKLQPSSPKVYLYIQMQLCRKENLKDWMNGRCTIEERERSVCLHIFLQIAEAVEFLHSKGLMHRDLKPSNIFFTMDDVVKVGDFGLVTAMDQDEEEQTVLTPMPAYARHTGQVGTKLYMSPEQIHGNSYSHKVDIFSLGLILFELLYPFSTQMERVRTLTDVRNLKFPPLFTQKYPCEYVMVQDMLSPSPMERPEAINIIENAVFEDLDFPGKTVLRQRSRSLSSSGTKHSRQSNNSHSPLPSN

[2] = target: T1, Eukaryotic translation initiation factor 2-alpha kinase 3; test: Counterscreen assay for PERK inhibitors: Dose response cell-based high throughput screening assay to measure inhibition of PERK at 6 hours. [Related pubchem assays: 1522, 1416 ]; format: functional
[3] = target: Neurotensin receptor type 1 (Homo sapiens, UniProt P30989); format: functional;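 note: Image-based confirmatory dose-response assay measuring agonist activity at NTR1; NTR1-expressing U2OS osteosarcoma cells imaged for beta-arrestin GFP spot formation; agonist potency where compounds increase beta-arrestin recruitment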
Sequence of Neurotensin receptor type 1 (P30989 whole entry): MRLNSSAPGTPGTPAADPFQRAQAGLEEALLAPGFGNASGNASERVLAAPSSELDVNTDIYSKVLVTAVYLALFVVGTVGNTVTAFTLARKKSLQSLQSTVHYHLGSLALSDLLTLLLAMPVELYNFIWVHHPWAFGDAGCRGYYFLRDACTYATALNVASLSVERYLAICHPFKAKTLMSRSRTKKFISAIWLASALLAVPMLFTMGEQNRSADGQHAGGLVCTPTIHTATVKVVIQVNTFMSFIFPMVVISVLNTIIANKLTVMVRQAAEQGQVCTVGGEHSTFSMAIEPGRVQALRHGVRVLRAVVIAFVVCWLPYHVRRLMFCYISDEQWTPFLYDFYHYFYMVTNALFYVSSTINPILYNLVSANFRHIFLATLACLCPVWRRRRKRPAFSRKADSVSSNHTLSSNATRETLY

[4] = target: T2, Acyl-homoserine lactone acylase PvdQ (Pseudomonas aeruginosa (strain LESB58), UniProt Q9I194); test: P. aeruginosa PvdQ acylase inhibitors, dose response, biochemical, fluorescence, plate reader and imaging, cherry-picks (AID 493231)
T2 sequence (Q9I194 whole entry): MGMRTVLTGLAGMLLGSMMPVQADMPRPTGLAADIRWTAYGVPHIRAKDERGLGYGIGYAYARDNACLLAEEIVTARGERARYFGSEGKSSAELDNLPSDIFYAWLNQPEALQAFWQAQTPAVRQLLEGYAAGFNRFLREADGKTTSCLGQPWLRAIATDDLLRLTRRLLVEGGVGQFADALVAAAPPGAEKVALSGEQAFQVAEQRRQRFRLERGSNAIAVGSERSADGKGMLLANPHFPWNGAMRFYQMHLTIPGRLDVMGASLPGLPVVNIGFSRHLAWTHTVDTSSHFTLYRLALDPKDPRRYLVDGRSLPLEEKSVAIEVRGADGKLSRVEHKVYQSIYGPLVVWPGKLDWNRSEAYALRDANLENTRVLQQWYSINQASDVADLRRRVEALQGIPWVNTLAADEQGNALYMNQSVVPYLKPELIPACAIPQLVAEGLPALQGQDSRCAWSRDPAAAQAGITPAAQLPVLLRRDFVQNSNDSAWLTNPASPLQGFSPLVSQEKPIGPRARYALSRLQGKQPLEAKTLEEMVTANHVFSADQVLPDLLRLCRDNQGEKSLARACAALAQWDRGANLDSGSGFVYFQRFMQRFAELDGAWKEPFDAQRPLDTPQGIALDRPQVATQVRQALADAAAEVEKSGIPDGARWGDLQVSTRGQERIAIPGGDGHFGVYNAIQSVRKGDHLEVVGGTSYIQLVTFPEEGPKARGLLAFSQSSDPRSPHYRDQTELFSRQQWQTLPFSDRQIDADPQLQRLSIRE

Bcl-2-related protein A1 = target: T3, Bcl-2-related protein A1 (Mus musculus, UniProt Q07440); format: functional;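 note: confirmatory dose–response counterscreen on Bfl-1, used to check hits from a UBC13 polyubiquitin inhibitor campaign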
T3 sequence (Q07440 whole entry): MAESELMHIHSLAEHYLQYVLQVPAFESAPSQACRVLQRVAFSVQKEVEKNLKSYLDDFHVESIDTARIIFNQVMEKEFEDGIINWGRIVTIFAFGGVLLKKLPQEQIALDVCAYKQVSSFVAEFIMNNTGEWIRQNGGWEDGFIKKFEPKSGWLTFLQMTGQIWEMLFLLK

[5] = target: T4, Ubiquitin-conjugating enzyme E2 N (Homo sapiens, UniProt P61088); format: functional
T4 sequence (P61088 whole entry): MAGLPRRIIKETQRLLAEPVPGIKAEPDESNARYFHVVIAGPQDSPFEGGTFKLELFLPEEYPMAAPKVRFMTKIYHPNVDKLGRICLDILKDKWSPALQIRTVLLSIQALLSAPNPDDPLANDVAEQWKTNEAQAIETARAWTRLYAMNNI

[6] = target: T4, Ubiquitin-conjugating enzyme E2 N; format: functional; remark: listed apart in the source
[7] = target: T5, Voltage-gated N-type calcium channel alpha-1B subunit/Amyloid beta A4 precursor protein-binding family A member 1 (Homo sapiens, UniProt Q00975+Q02410); format: protein assay
T5 sequence (Q00975 whole entry): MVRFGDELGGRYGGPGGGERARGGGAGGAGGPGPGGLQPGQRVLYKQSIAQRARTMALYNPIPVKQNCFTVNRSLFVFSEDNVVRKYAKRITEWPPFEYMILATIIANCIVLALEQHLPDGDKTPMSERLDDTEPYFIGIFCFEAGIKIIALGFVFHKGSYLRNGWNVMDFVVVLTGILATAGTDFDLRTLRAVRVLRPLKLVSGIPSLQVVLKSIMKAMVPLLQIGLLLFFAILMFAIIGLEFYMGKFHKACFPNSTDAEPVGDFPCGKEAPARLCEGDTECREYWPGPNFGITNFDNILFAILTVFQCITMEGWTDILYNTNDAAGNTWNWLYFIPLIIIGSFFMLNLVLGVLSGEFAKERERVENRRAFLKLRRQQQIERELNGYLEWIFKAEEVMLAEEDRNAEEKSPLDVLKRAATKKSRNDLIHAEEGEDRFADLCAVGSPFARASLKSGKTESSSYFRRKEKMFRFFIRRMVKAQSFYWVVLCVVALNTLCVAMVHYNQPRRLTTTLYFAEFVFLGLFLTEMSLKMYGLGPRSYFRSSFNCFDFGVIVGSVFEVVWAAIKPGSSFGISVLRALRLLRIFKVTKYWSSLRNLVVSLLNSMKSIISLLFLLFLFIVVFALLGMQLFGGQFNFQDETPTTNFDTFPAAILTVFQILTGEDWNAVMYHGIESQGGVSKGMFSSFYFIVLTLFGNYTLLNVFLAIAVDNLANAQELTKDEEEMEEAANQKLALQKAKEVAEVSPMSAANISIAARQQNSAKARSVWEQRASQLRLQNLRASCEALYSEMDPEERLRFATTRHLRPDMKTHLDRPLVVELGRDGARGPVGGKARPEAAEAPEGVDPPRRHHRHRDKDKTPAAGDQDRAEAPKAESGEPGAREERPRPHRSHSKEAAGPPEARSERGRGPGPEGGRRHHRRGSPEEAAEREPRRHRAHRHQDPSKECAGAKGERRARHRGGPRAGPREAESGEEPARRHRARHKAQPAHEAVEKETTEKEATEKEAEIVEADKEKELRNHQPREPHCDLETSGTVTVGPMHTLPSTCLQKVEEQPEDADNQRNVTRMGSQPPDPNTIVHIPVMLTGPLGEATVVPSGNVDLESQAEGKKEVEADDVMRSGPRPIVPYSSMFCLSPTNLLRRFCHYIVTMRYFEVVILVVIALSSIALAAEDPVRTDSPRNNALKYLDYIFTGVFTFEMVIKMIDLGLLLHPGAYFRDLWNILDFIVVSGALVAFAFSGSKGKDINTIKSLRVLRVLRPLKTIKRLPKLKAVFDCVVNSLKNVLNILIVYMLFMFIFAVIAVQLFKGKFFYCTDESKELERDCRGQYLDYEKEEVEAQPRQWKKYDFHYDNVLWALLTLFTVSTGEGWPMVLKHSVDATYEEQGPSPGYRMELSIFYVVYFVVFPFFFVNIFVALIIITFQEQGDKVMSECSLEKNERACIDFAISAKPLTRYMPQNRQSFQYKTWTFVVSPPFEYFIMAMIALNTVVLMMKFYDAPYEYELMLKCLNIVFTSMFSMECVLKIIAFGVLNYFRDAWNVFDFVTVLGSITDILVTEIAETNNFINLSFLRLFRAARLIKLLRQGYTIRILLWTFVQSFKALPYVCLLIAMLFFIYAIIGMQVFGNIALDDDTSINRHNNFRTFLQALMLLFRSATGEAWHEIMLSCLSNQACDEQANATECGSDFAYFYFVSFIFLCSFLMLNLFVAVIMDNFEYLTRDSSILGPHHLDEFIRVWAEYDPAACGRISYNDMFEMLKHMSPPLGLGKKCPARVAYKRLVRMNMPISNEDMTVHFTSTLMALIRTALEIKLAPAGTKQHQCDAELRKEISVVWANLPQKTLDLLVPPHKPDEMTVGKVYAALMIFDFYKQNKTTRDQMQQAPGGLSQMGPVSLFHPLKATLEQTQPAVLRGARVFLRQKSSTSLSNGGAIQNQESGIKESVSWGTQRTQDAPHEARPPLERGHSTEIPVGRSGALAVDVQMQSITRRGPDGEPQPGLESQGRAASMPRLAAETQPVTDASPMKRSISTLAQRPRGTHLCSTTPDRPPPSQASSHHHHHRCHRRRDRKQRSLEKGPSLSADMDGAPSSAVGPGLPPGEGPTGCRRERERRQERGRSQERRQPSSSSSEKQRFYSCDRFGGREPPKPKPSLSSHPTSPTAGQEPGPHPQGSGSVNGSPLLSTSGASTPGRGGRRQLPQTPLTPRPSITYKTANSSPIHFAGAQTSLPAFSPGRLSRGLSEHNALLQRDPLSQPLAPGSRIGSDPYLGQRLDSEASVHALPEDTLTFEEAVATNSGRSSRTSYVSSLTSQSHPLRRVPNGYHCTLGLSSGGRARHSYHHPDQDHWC
T5 sequence (Q02410 whole entry): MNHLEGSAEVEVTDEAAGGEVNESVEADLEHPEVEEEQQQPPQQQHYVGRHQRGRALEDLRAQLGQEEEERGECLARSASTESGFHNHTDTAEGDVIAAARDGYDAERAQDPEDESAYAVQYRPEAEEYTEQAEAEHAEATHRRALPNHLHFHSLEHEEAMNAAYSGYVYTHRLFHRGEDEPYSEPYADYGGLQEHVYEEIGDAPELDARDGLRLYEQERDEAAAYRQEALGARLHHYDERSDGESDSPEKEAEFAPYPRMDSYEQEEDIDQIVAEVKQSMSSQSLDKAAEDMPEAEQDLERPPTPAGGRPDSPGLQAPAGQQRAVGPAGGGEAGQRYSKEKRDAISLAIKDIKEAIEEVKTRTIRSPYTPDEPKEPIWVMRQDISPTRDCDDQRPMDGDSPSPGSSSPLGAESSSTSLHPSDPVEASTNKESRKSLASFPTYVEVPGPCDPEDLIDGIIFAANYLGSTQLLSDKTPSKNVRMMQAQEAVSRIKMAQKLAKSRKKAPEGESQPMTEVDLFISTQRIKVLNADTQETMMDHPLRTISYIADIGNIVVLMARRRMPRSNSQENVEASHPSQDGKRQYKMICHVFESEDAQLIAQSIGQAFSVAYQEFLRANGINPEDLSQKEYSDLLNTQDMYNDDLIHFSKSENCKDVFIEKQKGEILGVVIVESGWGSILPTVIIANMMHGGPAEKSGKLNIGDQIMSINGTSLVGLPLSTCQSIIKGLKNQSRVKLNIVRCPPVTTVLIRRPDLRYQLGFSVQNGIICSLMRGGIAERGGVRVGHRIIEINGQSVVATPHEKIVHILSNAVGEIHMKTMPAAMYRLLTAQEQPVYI

[8] = target: T5, Voltage-gated N-type calcium channel alpha-1B subunit/Amyloid beta A4 precursor protein-binding family A member 1; format: protein assay; remark: listed apart in the source
[9] = target: Induced myeloid leukemia cell differentiation protein Mcl-1 (Homo sapiens, UniProt Q07820); format: functional
Sequence of Induced myeloid leukemia cell differentiation protein Mcl-1 (Q07820 whole entry): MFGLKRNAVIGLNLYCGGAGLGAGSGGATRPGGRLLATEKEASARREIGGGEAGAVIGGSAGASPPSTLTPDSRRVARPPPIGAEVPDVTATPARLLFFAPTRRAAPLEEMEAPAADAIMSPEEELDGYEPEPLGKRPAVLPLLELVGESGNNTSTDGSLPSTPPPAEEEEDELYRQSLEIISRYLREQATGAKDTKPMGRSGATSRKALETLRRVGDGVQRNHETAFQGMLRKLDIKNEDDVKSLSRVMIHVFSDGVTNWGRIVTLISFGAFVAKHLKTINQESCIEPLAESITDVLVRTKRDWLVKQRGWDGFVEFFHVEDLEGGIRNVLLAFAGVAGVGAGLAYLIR

[10] = target: Eukaryotic translation initiation factor 4E (Mus musculus, UniProt P63073); test: eIF4E–eIF4G protein interaction inhibitors, dose response, biochemical, TR-FRET (AID 855); format: functional;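 note: potency for disrupting eIF4E binding to eIF4GI seen as loss of FRET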
Sequence of Eukaryotic translation initiation factor 4E (P63073 whole entry, the tested form may be a part): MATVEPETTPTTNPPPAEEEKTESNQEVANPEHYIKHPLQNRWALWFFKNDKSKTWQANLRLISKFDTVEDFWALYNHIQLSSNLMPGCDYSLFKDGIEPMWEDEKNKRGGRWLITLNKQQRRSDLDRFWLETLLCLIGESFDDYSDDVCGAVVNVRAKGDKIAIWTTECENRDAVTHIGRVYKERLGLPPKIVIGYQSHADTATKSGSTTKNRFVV

[11] = target: T6, Carboxy-terminal domain RNA polymerase II polypeptide A small phosphatase 1 (Homo sapiens, UniProt Q9GZU7); test: inhibitors of CTDSP1, concentration-response testing, biochemical assay, absorbance-based, actives from ultra-high-throughput screening (AID 540297); format: functional
T6 sequence (Q9GZU7 whole entry): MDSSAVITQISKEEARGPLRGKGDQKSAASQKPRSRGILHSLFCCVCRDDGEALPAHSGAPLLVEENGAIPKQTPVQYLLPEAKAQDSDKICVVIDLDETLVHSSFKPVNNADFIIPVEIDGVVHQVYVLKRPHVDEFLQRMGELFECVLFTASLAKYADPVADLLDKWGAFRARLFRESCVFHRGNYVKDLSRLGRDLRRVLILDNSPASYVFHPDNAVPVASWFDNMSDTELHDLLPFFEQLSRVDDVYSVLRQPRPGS

[12] = A cytotoxicity screen of small molecule inhibitors of the PhoP region in Salmonella typhi identified in the primary screen. [Related pubchem assays: 1850, 1864, 1985 ]; format: functional
Cytochrome P450 2C19 = Cytochrome P450 2C19 (Homo sapiens, UniProt P33261); test: Cytochrome panel assay with activity outcomes. Panel member name: p450-cyp2c19 Compounds with AC50 equal or less than 10 uM are considered active; format: functional
Sequence of Cytochrome P450 2C19 (P33261 whole entry): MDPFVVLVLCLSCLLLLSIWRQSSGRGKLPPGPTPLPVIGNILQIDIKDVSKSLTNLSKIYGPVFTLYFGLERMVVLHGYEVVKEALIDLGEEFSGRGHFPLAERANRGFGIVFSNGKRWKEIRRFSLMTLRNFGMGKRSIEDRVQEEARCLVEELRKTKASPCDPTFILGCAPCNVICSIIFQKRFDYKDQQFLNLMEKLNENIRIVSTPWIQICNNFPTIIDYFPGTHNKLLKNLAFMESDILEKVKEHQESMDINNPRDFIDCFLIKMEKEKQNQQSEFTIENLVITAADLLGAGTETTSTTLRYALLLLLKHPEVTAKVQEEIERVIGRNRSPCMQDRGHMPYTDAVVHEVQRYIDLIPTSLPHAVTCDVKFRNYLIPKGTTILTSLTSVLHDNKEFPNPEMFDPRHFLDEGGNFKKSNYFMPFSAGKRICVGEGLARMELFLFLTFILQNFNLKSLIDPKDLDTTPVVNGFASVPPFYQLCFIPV

[13] = target: T7, Replicative DNA helicase DnaB (Mycobacterium tuberculosis, UniProt P9WMR3); test: DnaB intein splicing inhibitors, dose response, biochemical, cell-free fluorescence (AID 449749); format: functional
T7 sequence (P9WMR3 whole entry): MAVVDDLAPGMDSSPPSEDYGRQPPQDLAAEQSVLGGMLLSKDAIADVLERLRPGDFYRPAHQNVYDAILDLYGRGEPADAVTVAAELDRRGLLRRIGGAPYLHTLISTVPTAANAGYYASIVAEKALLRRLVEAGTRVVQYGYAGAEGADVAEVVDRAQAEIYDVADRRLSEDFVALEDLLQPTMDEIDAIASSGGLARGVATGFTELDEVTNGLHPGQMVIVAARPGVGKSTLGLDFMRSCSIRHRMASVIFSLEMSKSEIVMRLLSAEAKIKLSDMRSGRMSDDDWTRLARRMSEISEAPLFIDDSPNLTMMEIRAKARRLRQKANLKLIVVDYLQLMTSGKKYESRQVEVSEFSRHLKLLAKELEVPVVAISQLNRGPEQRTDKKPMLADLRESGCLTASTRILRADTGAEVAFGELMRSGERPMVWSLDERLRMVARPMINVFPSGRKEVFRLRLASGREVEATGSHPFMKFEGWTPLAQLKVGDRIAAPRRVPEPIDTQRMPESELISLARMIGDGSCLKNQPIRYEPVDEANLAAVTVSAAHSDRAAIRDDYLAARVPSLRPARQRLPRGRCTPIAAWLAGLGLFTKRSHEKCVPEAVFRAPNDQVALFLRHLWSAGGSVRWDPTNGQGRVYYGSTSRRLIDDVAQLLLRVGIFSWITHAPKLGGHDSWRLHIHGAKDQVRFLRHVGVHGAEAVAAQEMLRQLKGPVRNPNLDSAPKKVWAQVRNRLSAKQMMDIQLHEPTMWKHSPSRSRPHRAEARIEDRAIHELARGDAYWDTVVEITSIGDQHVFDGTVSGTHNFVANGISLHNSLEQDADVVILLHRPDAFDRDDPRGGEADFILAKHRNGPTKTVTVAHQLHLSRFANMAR

Protein RecA = target: T8, Protein RecA (Mycobacterium tuberculosis, UniProt P9WHJ3); test: Fluorescence Cell-Free Homogeneous Dose Retest to Identify Inhibitors of RecA-Intein Splicing Activity. [Related pubchem assays (depositor defined):AID2097, AID2223, AID489010, AID492950]; format: functional
T8 sequence (P9WHJ3 whole entry): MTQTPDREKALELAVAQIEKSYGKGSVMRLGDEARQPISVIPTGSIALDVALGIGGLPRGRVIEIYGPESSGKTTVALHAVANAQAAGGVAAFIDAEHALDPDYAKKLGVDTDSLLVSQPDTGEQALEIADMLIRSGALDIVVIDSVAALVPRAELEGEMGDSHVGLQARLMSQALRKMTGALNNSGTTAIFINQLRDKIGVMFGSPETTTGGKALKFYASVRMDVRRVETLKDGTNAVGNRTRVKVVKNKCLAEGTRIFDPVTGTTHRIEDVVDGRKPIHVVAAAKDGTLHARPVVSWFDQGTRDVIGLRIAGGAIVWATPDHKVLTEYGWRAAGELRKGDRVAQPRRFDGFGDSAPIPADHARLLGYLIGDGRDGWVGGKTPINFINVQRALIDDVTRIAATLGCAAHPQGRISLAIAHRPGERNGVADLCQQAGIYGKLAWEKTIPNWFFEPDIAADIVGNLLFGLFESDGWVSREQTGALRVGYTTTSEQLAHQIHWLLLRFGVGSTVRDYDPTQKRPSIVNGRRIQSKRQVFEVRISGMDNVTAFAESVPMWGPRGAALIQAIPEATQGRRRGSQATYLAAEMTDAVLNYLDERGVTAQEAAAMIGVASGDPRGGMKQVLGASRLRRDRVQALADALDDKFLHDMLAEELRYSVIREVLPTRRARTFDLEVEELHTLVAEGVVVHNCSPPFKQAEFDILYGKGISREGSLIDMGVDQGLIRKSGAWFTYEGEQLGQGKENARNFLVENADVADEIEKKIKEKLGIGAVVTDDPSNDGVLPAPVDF

Genome polyprotein = Genome polyprotein (dengue virus type 2, UniProt P29990); test: Dengue-2 NS5 methyltransferase inhibitors, primary screen, biochemical, confirmation dose response (AID 588689); format: functional
[14] = target: DNA dC->dU-editing enzyme APOBEC-3G (Homo sapiens, UniProt Q9HC16); test: Dose Response confirmation of small molecule APOBEC3G DNA Deaminase Inhibitors via a fluorescence-based single-stranded DNA deaminase assay. [Related pubchem assays (depositor defined):AID493012, AID493028]; format: functional
Sequence of DNA dC->dU-editing enzyme APOBEC-3G (Q9HC16 whole entry): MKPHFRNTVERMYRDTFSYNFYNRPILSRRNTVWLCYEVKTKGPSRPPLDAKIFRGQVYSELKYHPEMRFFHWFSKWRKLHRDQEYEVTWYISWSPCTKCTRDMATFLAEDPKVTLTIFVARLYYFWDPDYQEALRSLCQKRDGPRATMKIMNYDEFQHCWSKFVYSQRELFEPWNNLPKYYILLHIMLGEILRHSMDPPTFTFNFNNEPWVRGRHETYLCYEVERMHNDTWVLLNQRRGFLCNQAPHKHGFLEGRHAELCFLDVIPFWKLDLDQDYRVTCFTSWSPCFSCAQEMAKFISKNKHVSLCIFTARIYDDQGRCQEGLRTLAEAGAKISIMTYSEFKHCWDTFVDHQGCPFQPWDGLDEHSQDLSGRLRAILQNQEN

In the case of `O=C(NC(=S)Nc1ccc2oc(=O)ccc2c1)c1ccccc1F`, the EC50 [1] is reported as > 55.7 µM (not active) and the EC50 [2] is reported as > 55.7 µM (not active).

With `COc1cc2c(cc1OC)C(SC)=NC(C)(C)C2` the EC50 [3] was 9.39 µM (active).

With `Cc1cc(NC(=O)c2cc([N+](=O)[O-])cc([N+](=O)[O-])c2C)no1` the AC50 [4] was 3.11 µM (active).

In the case of `Cc1ccc(S(=O)(=O)NCCC(C)C)cc1[N+](=O)[O-]`, the AC50 [4] is reported as 12.5 µM (active).

For `N#CN(Cc1ccccc1)Cc1ccccc1`, the AC50 [4] was 1.6 µM (active).

For `CCOc1ccc(-c2nc(S(=O)(=O)c3ccccc3)c(NC)o2)cc1`, the IC50 (Bcl-2-related protein A1) was > 20 µM (inactive), the IC50 [5] was 19 µM (active) and the IC50 [6] was > 20 µM (inactive).

In the case of `NC1=NC(=Nc2cccc(S(N)(=O)=O)c2)c2ccccc21`, the EC50 [1] is reported as > 55.7 µM (not active) and the EC50 [2] is reported as > 55.7 µM (not active).

For `CCOC(=O)c1cc(-c2ccc(OC)cc2)nc2c1c(C)nn2CCC#N`, the IC50 (Bcl-2-related protein A1) was > 20 µM (inactive), the IC50 [5] was 15 µM (active) and the IC50 [6] was 6.8 µM (active).

In the case of `CC(C)N(C(=O)/C=C/c1cccc([N+](=O)[O-])c1)C(C)C`, the EC50 [1] is reported as > 55.7 µM (not active) and the EC50 [2] is reported as > 55.7 µM (not active).

With `CC(=O)c1ccc(NC(=O)CSc2ccsc2[N+](=O)[O-])cc1` the IC50 [7] was 6 µM (active), the IC50 [8] was 48.2 µM (active) and the IC50 [9] was < 0.4 µM (not active). The IC50 [10] was 50 µM (inactive) and the IC50 [11] was 3.83 µM (active).

In the case of `COc1cccc(C(c2c(C)[nH]n(-c3ccccc3)c2=O)c2c(C)[nH]n(-c3ccccc3)c2=O)c1O`, the EC50 [12] is reported as > 50 µM (active), the AC50 (Cytochrome P450 2C19) is reported as “inconclusive” and the AC50 [13] is reported as 1.18 µM (active). The EC50 (Protein RecA) was 0.829 µM (active) and the IC50 (Genome polyprotein) was 38.8 µM (active).

With `Sc1nnc(-c2ccco2)n1/N=C/c1ccccn1` the IC50 [14] was 9.12 µM (active).
